Values quoted from earlier work, collected in publication PMC9889658, “The structure of MadC from Clostridium maddingley reveals new insights into class I lanthipeptide cyclases” (Frontiers in Microbiology, 2023).
pKd: −log10 of the molar value.

Biological target: NisB
Conditions: dependent on maturation state; ref Mavaro et al., 2011; read-out: binding affinity
Source text: This implies a higher relevance of the LP comp ...

With “MSTKDFNLDLVSVSKKDSGASPRITSISLCTPGCKTGALMGCNMKTATCHCSIHVSK [unmodified prenisin, unmodified nisin precursor peptide]” as the sequence, how does the pKd read?
The pKd was 6.00.
